In patent US6046289A, “Propenamide derivatives containing Arg-Gly-Asp polymers obtained therefrom” (priority 1990, dated 2000):

Test system: human plasma rich in platelet
Experiment: Platelet coagulation-inhibitory activity in vitro (aggregometer, ADP or collagen stimulation)
Format: cell-based
Method: The platelet coagulation-inhibitory effect of the compounds of the present invention was assayed, in vitro, using human plasma rich in platelet. The experimental method will be described below.
To fresh human blood, there was added 1/9 volume of a 3.8% sodium citrate solution, the resulting mixture was centrifuged (1000 rpm; for 10 minutes) and the upper layer was separated as a plasma rich in platelet. The propenamide derivatives, the polymers thereof, the copolymers thereof or salts thereof obtained through lyophilization were dissolved in physiological saline to give a plurality of solutions having various concentrations ranging from 0 to 1.5 mg/ml. Each of the solutions (25 μl) was added to 200 μl of the plasma, incubated at 37° C. for 3 minutes, then a 50 μM of ADP (adenosine diphosphate) solution or a 200 μg/ml collagen solution was added to determine the extent of coagulation in terms of transmittance determined by an aggregometer.
Rate of Coagulation Inhibition=(1-T/T0)×100%
T0 : Transmittance observed when the propenamide derivatives, the polymers thereof, the copolymers thereof or salts thereof were not added.
T: Transmittance observed when the propenamide derivatives, the polymers thereof, the copolymers thereof or salts thereof were added.

trimethylammonioethyl methacrylamide [Preparation product 14]
Platelet Coagulation-Inhibitory Activity IC50 ADP Stimulation (ADP Stimulation): C (more than 80)
Platelet Coagulation-Inhibitory Activity IC50 Collagen Stimulation (Collagen Stimulation): C (more than 80)
